Data from article PMC13065080, “Discovery of a potent anti-Zika virus benzamide series targeting the viral protein NS4B” (PLOS Pathogens, 2026).

What was measured:
miniRFP-NS4B = molecular target: T1, miniRFP-NS4B (Zika virus, UniProt A0A142I5B9); assay: Flow cytometric binding assay, miniRFP-NS4B expressing cells; format: cell-based; conditions: 293T cells, vs miniRFP alone, miniRFP-NS5 or NS4B-negative cells
T1 construct: 2K-miniRFPnano3-NS4B polypeptide-expressing plasmid (miniRFP-NS4B, hereafter); expressed in transfected cells; host or cells: HEK-293T
T1 sequence (A0A142I5B9 2270-2520): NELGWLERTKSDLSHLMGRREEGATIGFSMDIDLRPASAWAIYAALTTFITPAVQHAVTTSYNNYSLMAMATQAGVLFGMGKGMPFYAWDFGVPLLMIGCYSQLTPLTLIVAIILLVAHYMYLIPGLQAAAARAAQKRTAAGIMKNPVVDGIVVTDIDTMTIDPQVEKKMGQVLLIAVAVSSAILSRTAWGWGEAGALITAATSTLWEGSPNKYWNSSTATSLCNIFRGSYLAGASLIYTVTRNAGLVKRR
Procedure: HEK-293T cells plated in 12-well plates at 70–80% confluency were transfected with plasmid DNA (1 µg/well) using PEI (Polyethylenimine, 3 µg/well) following a protocol described elsewhere. At 24 hours post transfection, cells were harvested by trypsinization, fixed with 2% PFA, and permeabilized with […]. After blocking for one hour with Intercept Protein-Free blocking buffer (Li-Cor), cells were incubated with MWAC-4163 in PBS with 10% blocking buffer for 30 minutes. After extensive washing, cells were analyzed on an Accuri C6 flow cytometer (BD Sciences) using channel 1 for FAM (ex488 nm/em533) and channel 4 (ex640 nm/em675LP) for miniRFP.

DENV NS4B = molecular target: T2, DENV NS4B (Dengue virus type 3, UniProt P27915); assay: 19F-NMR binding, DENV NS4B; conditions: compound 50 µM, NS4B 5 µM
T2 construct: Overlaid ^19F-NMR spectra of JNJ-1802 in absence (blue) and presence of DENV NS4B (red)
T2 sequence (P27915 2243-2490): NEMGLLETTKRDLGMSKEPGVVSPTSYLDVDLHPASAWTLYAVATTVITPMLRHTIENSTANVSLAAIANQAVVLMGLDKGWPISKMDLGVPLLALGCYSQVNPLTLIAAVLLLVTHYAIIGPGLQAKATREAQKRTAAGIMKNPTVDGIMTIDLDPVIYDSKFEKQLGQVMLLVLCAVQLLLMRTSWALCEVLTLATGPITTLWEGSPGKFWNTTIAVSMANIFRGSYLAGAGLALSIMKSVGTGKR

Row | SMILES | binding to cells expressing miniRFP-NS4B (FAM-positive frequency) (miniRFP-NS4B) | 19F-NMR spectrum change with DENV NS4B (DENV NS4B)
1 | COc1ccc([C@@H](C)NC(=O)c2ccc(C(C)(C)C)cc2)cc1 [MWAC-4169, (R)-4-(tert-butyl)-N-(1-(4-methoxyphenyl)ethyl)benzamide] | significantly higher degree of binding | –
2 | COc1cc(N[C@H](C(=O)c2c[nH]c3ccc(OC(F)(F)F)cc23)c2ccc(Cl)cc2OC)cc(S(C)(=O)=O)c1 [JNJ-1802] | – | a chemical shift perturbation and significant line broadening was seen
